The numbers were not newly measured in publication PMC3527451, “A Pilot Randomized, Placebo Controlled, Double Blind Phase I Trial of the Novel SIRT1 Activator SRT2104 in Elderly Volunteers” (PLoS ONE, 2012), which cites them from elsewhere.

The data set deals with DIO mice and ob/ob mice. To be noted: e.g. DIO and Lep ob/ob obese mice; cited from earlier work.

On to `Oc1ccc(/C=C/c2cc(O)cc(O)c2)cc1` [resveratrol, reference compound], for which the “cholesterol, LDL and triglycerides in preclinical models of dyslipidemia, diabetes and obesity” value is “lower cholesterol, LDL and triglycerides”.
